Results published in patent publication US20060074105A1, “Substituted quinoline and quinazoline inhibitors of quinone reductase 2” (Serenex, Inc., priority 2004, published 2006).
Values joined by “and” are separate entries in the source; they are usually repeats but may differ in a detail not shown here. Identical values can stand only once. Like-named read-outs stand apart in the source and are kept apart here.

Assays:
recombinant QR2 = molecular target: T1, recombinant QR2 (Homo sapiens, UniProt P16083); assay: Inhibition of QR2 activity in vitro (absorbance at 365 nm, NmeH/menadione); format: biochemical
T1 sequence (P16083 1-231): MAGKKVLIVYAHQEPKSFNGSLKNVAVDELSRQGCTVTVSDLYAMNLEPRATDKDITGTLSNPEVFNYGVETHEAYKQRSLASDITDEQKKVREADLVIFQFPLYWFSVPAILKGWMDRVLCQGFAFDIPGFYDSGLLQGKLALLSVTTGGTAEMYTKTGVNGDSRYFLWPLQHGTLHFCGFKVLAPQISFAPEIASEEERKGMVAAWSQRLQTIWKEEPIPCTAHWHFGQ
Protocol: Inhibition of QR2 activity by the compounds of the invention was assayed in triplicate with recombinant QR2 (at 96 ng/ml) by measuring the absorbance at 365 nm in a buffer containing 50 Mm Tris-HCl, Ph 8.5, 50 μM NmeH, 20 μM menadione, and 0.1% Triton X-100 as described in Graves et al. (2002) Mol. Pharmacol. 62: 1364-72.

[1] = system: Plasmodium chabaudi AS line; assay: Four day test for blood schizontocidal activity, P. chabaudi AS in mice; format: in vivo; design: ED90: unit not given beside the values; conditions: for ED50: Plasmodium chabaudi
Protocol: (§1) MEFA which was developed from NS by the 2% relapse technique (Peters, W., Chemotherapy and Drug Resistance in Malaria, 2nd Ed., London, Academic Press, ISBN 0-12-552721-7).
(§2) Blood schizontocidal activity was assessed by the “four day test” essentially as described by Peters, W. and Robinson, B. L. (1999), “Malaria” in Handbook of Animal Models of Infection, Academic Press. The compound was dissolved in dimethyl sulfoxide with the aid of ultrasonification and aqueous dilutions were prepared for use.
(§3) Random-bred Swiss albino mice free of Mycoplasma (Eperythrozoon) coccoides and weighing between 18 and 22 g. were infected via the tail vein on day 0 (D0) and then treated once daily either subcutaneously or orally by gavage for four consecutive days (D0 through D+3). Thin blood films were made from tail blood from groups of untreated controls and from treated animals on D+4.

P. yoelii ssp. MEFA = assay: Four day test for blood schizontocidal activity, mefloquine-resistant P. yoelii ssp. MEFA in mice; format: in vivo, Plasmodium yoelii; design: ED90: unit not given beside the values; conditions: for ED50: Plasmodium yoelii
Protocol: as §1, §2, §3

P. yoelii ssp. NS = assay: Four day test for blood schizontocidal activity, chloroquine-resistant P. yoelii ssp. NS in mice; format: in vivo, Plasmodium yoelii; design: ED90: unit not given beside the values; conditions: for ED50: Plasmodium yoelii
Protocol: as §1, §2, §3

[2] = Signs of toxicity in mice treated in the four day test; format: in vivo
From the text: as §3

[3] = average of the determinations, read-out: IC50 Average
[4] = individual determinations, assay range given, read-out: IC50
[5] = set 1, average, read-out: IC50 Average
[6] = set 2, average, read-out: IC50 Average
[7] = set 2, individual determinations, read-out: IC50
[8] = P. yoelii ssp. MEFA, sc, once daily D0 to D+3, mice

Structure (SMILES)	IC50 (recombinant QR2; [3]) [µM]	IC50 (recombinant QR2; [4])	other results
Clc1ccc2c(NCCc3ccccn3)ccnc2c1 [Compound 2-4]	3.8	3.3 µM and 4.7 µM	–
Clc1ccc2c(NC3=NC4C=CC=CC4N3)ccnc2c1 (stereo not drawn) [Compound 2-29]	3.2	4.1 µM and 2.2 µM and 3.4 µM	–
COc1cc(NCc2ccccn2)c2ncccc2c1 [Compound 4-1]	0.47	0.34 µM and 0.24 µM and 0.84 µM	–
Clc1ccc2c(NCc3ccccn3)ccnc2c1 [Compound 2-17]	–	–	IC50 (recombinant QR2; [5]): 0.6 µM; IC50 (recombinant QR2; set 1, individual determinations, read-out: IC50): 0.41 µM and 0.67 µM and 0.72 µM; IC50 (recombinant QR2; [6]): 0.55 µM; IC50 (recombinant QR2; [7]): 0.6 µM and 0.5 µM
COc1cc(NC(C)CCCN)c2ncccc2c1 (stereo not drawn) [primaquine, reference compound]	–	–	IC50 (recombinant QR2; IC50 (μM), individual determinations, assay range given): 14.2 µM and 11 µM and 13.2 µM; IC50 (recombinant QR2; IC50 Average, average of the determinations): 13 µM
CNc1ccnc2cc(Cl)ccc12 [Compound 2-39]	0.13	0.13 µM and 0.16 µM and 0.09 µM	ED50 ([1]; po): 150 mg/kg; ED50 ([1]; sc): 150 mg/kg; activity against the drug-sensitive P. chabaudi AS line ([1]; parenteral and oral, result in words): active both parenterally and orally; ED50 (P. yoelii ssp. MEFA; P. yoelii ssp. MEFA, po, once daily D0 to D+3, mice): 190 mg/kg; ED50 (P. yoelii ssp. MEFA; [8]): 320 mg/kg; inhibitory activity against resistant strain of P. yoelii (P. yoelii ssp. MEFA; mefloquine-resistant P. yoelii ssp. MEFA, result in words): demonstrated inhibitory activity; ED50 (P. yoelii ssp. NS; po): 220 mg/kg; ED50 (P. yoelii ssp. NS; sc): 400 mg/kg; inhibitory activity against resistant strain of P. yoelii (P. yoelii ssp. NS; chloroquine-resistant P. yoelii ssp. NS, result in words): demonstrated inhibitory activity; toxicity ([2]; oral, higher doses): some toxicity was observed at higher doses; overt signs of toxicity ([2]; subcutaneous): No overt signs of toxicity
CCC(CC)(CCC#N)CNc1cc(OC)cc2cccnc12 [Compound 4-3]	10.2	9.1 µM and 7.8 µM and 13.7 µM	–
Clc1ccc2c(SCc3ccccn3)ccnc2c1 [Compound 2-33]	74	84 µM and 72.2 µM and 65.9 µM	–
Clc1ccc2cc(-c3ccccc3)cnc2c1 [Compound 7, 7-chloro-3-phenylquinoline]	43.3	49.5 µM and 40 µM and 40.3 µM	–
CC(O)CNCCNc1cc(C(F)(F)F)nc2c(C(F)(F)F)cccc12 (stereo not drawn) [Compound 3-3]	98	109 µM and 87 µM	–
CCN1CCC(Nc2cc(OC)cc3cccnc23)CC1 [Compound 4-8]	1.6	2.2 µM and 0.89 µM and 1.65 µM	–
CCN(CC)CCCC(C)Nc1ccnc2cc(Cl)ccc12 (stereo not drawn) [chloroquine, reference compound]	–	–	IC50 (recombinant QR2; read-out: QR2 IC50): 1 to 5 µM; IC50 (recombinant QR2; [5]): 1.13 µM; IC50 (recombinant QR2; [6]): 4.13 µM; IC50 (recombinant QR2; [7]): 3.99 µM and 4.15 µM and 4.25 µM; ED90 (P. yoelii ssp. NS; P. yoelii ssp. NS, sc, once daily D0 to D+3, mice): 19.0; ED50 (P. yoelii ssp. NS; sc): 5 mg/kg
OC(c1cc(C(F)(F)F)nc2c(C(F)(F)F)cccc12)C1CCCCN1 (stereo not drawn) [mefloquine, reference compound]	33	28 µM and 34.8 µM and 36.5 µM	ED90 ([1]; P. chabaudi AS, sc (subcutaneous injection), once daily D0 to D+3, mice): 3.0; ED50 ([1]; P. chabaudi AS, sc (subcutaneous injection), once daily D0 to D+3, mice, read-out: ED50): 1.5 mg/kg; ED90 (P. yoelii ssp. MEFA; [8]): 100; ED50 (P. yoelii ssp. MEFA; [8]): 20 mg/kg
Clc1ccc2c(OCc3ccccn3)ccnc2c1 [Compound 2-34]	79.6	81.5 µM and 79 µM and 78.3 µM	–
COc1ccc2c(ccc[n+]2[O-])c1 [Compound 9, 6-methoxyquinoline N-oxide]	4.9	4.2 µM and 4.7 µM and 5.8 µM	–
CCN(CC)CCC(C)Nc1cc(OC)cc2cccnc12 (stereo not drawn) [Compound 4-5]	23	18.5 µM and 21.7 µM and 28.8 µM	–
CCC(CC)(CCCN)CNc1cc(OC)cc2cccnc12 [Compound 4-9]	18.5	11.6 µM and 27.5 µM and 16.4 µM	–
COc1cc(NC2CCN(Cc3ccccc3)CC2)c2ncccc2c1 [Compound 4-2]	4.8	4.5 µM and 4.7 µM and 5.3 µM	–
Oc1ccc(CCNc2ccnc3cc(Cl)ccc23)cc1 [Compound 2-5]	2.7	2.68 µM and 2.42 µM and 2.86 µM	–
O=[N+]([O-])c1ccc(NCCNc2cc(C(F)(F)F)nc3cc(C(F)(F)F)ccc23)nc1 [Compound 5, N-(2-(5-nitropyridin-2-ylamino)ethyl)-2,7-bis(trifluoromethyl)quinolin-4-amine]	189	132 µM and 180 µM and 255 µM	–
OCCN(CCO)CCCNc1cc(C(F)(F)F)nc2c(C(F)(F)F)cccc12 [Compound 3-4]	238	229 µM and 164 µM and 320 µM	–
